SMILES strings stand for the structures. Active and inactive are the calls of the source. The rule behind the calls is not given here.

Experiment [1] addresses Fructose-bisphosphate aldolase class 2 (Escherichia coli K-12) (UniProt P0AB71). As to the kind of experiment: Inhibition of IPTG-stimulated Escherichia coli K-12 fbaA at 4 fold MIC by microarray analysis.
Experiment [2] concerns the target Farnesyl diphosphate synthase (Escherichia coli K-12) (UniProt P22939). Nature of the experiment: Inhibition of IPTG-stimulated Escherichia coli K-12 ispA at 4 fold MIC by microarray analysis.
For experiment [3], the target named is Large ribosomal subunit protein bL28 (Escherichia coli (strain K12)) (UniProt P0A7M2). As to the kind of experiment: Inhibition of IPTG-stimulated Escherichia coli K-12 rpmB at 4 fold MIC by microarray analysis.
Experiment [4] concerns the target Guanylate kinase (Escherichia coli (strain K12)) (UniProt P60546). As to the kind of experiment: Inhibition of IPTG-stimulated Escherichia coli K-12 gmk at 4 fold MIC by microarray analysis.
Experiment [5] deals with T1, Outer membrane protein TolC (Escherichia coli (strain K12)) (UniProt P02930).
T1 sequence (whole entry): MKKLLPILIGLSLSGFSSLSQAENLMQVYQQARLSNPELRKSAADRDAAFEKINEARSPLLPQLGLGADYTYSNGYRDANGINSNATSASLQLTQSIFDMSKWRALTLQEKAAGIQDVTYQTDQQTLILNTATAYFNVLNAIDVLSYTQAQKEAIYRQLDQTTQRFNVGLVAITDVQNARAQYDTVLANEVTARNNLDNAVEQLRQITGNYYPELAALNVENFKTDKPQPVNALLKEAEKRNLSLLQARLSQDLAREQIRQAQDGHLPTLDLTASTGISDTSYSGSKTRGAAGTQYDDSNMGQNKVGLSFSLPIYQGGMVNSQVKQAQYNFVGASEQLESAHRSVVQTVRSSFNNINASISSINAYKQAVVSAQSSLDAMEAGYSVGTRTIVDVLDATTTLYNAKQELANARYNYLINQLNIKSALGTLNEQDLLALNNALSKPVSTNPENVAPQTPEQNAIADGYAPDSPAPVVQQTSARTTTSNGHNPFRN
As to the kind of experiment: Inhibition of IPTG-stimulated Escherichia coli K-12 tolC at 16 fold MIC by microarray analysis.

Experiment [6] deals with T2, Dihydrofolate synthase/folylpolyglutamate synthase (Escherichia coli (strain K12)) (UniProt P08192).
T2 sequence (whole entry): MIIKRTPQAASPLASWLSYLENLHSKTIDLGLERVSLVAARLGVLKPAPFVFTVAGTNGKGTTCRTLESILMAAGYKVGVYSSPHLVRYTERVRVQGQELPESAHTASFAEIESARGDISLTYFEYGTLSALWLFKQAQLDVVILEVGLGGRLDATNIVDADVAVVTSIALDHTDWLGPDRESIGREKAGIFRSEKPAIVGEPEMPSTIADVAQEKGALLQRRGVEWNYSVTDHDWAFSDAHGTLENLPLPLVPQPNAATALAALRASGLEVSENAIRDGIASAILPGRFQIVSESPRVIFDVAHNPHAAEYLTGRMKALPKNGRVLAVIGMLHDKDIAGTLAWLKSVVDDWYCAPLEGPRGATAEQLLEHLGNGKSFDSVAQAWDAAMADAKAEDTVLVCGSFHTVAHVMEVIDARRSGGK
As to the kind of experiment: Inhibition of IPTG-stimulated Escherichia coli K-12 folC at 16 fold MIC by microarray analysis.

The target of experiment [7] is CDP-diacylglycerol--glycerol-3-phosphate 3-phosphatidyltransferase (Escherichia coli (strain K12)) (UniProt P0ABF8). Nature of the experiment: Inhibition of IPTG-stimulated Escherichia coli K-12 pgsA at 4 fold MIC by microarray analysis.
For experiment [8], the target named is T2, Dihydrofolate synthase/folylpolyglutamate synthase (Escherichia coli (strain K12)). Nature of the experiment: Inhibition of IPTG-stimulated Escherichia coli K-12 folC at 4 fold MIC by microarray analysis.
The target in experiment [9] is UDP-N-acetylmuramoyl-L-alanyl-D-glutamate--2,6-diaminopimelate ligase (Escherichia coli (strain K12)) (UniProt P22188). Nature of the experiment: Inhibition of IPTG-stimulated Escherichia coli K-12 murE at 4 fold MIC by microarray analysis.
Experiment [10] addresses Acyl carrier protein (Escherichia coli (strain K12)) (UniProt P0A6A8). Nature of the experiment: Inhibition of IPTG-stimulated Escherichia coli K-12 acpP at 4 fold MIC by microarray analysis.
Experiment [11] has as its target UDP-N-acetylglucosamine 1-carboxyvinyltransferase (Escherichia coli K-12) (UniProt P0A749). As to the kind of experiment: Inhibition of IPTG-stimulated Escherichia coli K-12 murA at 4 fold MIC by microarray analysis.
Experiment [12] addresses Acyl carrier protein (Escherichia coli (strain K12)) (UniProt P0A6A8). Nature of the experiment: Inhibition of IPTG-stimulated Escherichia coli K-12 acpP at 8 fold MIC by microarray analysis.
In experiment [13] the target is 1-acyl-sn-glycerol-3-phosphate acyltransferase (Escherichia coli (strain K12)) (UniProt P26647). As to the kind of experiment: Inhibition of IPTG-stimulated Escherichia coli K-12 plsC at 4 fold MIC by microarray analysis.
The target in experiment [14] is Uncharacterized protein YdfB (Escherichia coli (strain K12)) (UniProt P29009). As to the kind of experiment: Inhibition of IPTG-stimulated Escherichia coli K-12 ydfB at 4 fold MIC by microarray analysis.
The target in experiment [15] is Octaprenyl diphosphate synthase (Escherichia coli (strain K12)) (UniProt P0AD57). Nature of the experiment: Inhibition of IPTG-stimulated Escherichia coli K-12 ispB at 8 fold MIC by microarray analysis.
The target is the same in experiment [16]. Nature of the experiment: Inhibition of IPTG-stimulated Escherichia coli K-12 ispB at 4 fold MIC by microarray analysis.
Experiment [17] has as its target 3-oxoacyl-[acyl-carrier-protein] synthase 1 (Escherichia coli K-12) (UniProt P0A953). Nature of the experiment: Inhibition of IPTG-stimulated Escherichia coli K-12 fabB at 8 fold MIC by microarray analysis.
The target is the same in experiment [18]. Nature of the experiment: Inhibition of IPTG-stimulated Escherichia coli K-12 fabB at 4 fold MIC by microarray analysis.
For experiment [19], the target named is Putative reactive intermediate deaminase TdcF (Escherichia coli (strain K12)) (UniProt P0AGL2). Nature of the experiment: Inhibition of IPTG-stimulated Escherichia coli K-12 yhaR at 4 fold MIC by microarray analysis.
Experiment [20] deals with Multifunctional CCA protein (Escherichia coli (strain K12)) (UniProt P06961). Nature of the experiment: Inhibition of IPTG-stimulated Escherichia coli K-12 cca at 4 fold MIC by microarray analysis.
The target of experiment [21] is T3, Uncharacterized protein YdiL (Escherichia coli (strain K12)) (UniProt P76196).
T3 sequence (whole entry): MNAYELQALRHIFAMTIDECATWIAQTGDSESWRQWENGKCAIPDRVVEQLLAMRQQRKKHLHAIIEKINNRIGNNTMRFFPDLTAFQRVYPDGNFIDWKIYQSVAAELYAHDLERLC
As to the kind of experiment: Inhibition of IPTG-stimulated Escherichia coli K-12 ydiL at 4 fold MIC by microarray analysis.

Experiment [22] deals with Multidrug efflux pump subunit AcrB (Escherichia coli (strain K12)) (UniProt P31224). Nature of the experiment: Binding affinity to Escherichia coli K-12 MC1061 acrB assessed as susceptibility to compound efflux at 0.01 to 1 ug/ml after 16 hrs by plate reader assay.
The target of experiment [23] is UDP-3-O-acyl-N-acetylglucosamine deacetylase (Escherichia coli K-12) (UniProt P0A725). Nature of the experiment: Inhibition of IPTG-stimulated Escherichia coli K-12 envA at 4 fold MIC by microarray analysis.
The target in experiment [24] is T4, Cell division protein FtsA (Escherichia coli (strain K12)) (UniProt P0ABH0).
T4 sequence (whole entry): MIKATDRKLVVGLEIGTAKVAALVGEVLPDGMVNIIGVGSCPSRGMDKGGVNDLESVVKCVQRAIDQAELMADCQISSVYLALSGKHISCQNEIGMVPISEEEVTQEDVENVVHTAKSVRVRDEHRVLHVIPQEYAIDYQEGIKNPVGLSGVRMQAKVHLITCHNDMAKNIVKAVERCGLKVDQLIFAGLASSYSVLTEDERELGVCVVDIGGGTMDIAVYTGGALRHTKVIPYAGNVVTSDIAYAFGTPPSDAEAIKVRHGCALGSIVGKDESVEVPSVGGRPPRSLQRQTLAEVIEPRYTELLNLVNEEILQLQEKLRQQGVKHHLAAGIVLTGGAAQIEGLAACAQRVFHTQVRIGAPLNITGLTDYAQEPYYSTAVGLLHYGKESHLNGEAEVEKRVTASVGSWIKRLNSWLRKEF
Nature of the experiment: Inhibition of IPTG-stimulated Escherichia coli K-12 ftsA at 8 fold MIC by microarray analysis.

Experiment [25] deals with T5, Iron-sulfur cluster insertion protein ErpA (Escherichia coli (strain K12)) (UniProt P0ACC3).
T5 sequence (whole entry): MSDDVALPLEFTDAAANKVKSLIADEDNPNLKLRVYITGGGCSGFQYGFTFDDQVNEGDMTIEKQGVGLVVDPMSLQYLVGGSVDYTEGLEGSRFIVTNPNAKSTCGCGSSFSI
As to the kind of experiment: Inhibition of IPTG-stimulated Escherichia coli K-12 yadR at 16 fold MIC by microarray analysis.

Experiment [26] has as its target D-alanine--D-alanine ligase B (Escherichia coli K-12) (UniProt P07862). Nature of the experiment: Inhibition of IPTG-stimulated Escherichia coli K-12 ddlB at 4 fold MIC by microarray analysis.
The target of experiment [27] is T4, Cell division protein FtsA (Escherichia coli (strain K12)). As to the kind of experiment: Inhibition of IPTG-stimulated Escherichia coli K-12 ftsA at 4 fold MIC by microarray analysis.
Experiment [28] deals with D-alanine--D-alanine ligase B (Escherichia coli K-12) (UniProt P07862). As to the kind of experiment: Inhibition of IPTG-stimulated Escherichia coli K-12 ddlB at 16 fold MIC by microarray analysis.
The target is the same in experiment [29]. As to the kind of experiment: Inhibition of IPTG-stimulated Escherichia coli K-12 ddlB at 8 fold MIC by microarray analysis.
In experiment [30] the target is Small ribosomal subunit protein bS18 (Escherichia coli (strain K12)) (UniProt P0A7T7). Nature of the experiment: Inhibition of IPTG-stimulated Escherichia coli K-12 rpSR at 4 fold MIC by microarray analysis.
Experiment [31] concerns the target T4, Cell division protein FtsA (Escherichia coli (strain K12)). Nature of the experiment: Inhibition of IPTG-stimulated Escherichia coli K-12 ftsA at 16 fold MIC by microarray analysis.
Experiment [32] deals with T1, Outer membrane protein TolC (Escherichia coli (strain K12)). As to the kind of experiment: Inhibition of IPTG-stimulated Escherichia coli K-12 tolC at 4 fold MIC by microarray analysis.
Experiment [33] deals with T5, Iron-sulfur cluster insertion protein ErpA (Escherichia coli (strain K12)). As to the kind of experiment: Inhibition of IPTG-stimulated Escherichia coli K-12 yadR at 8 fold MIC by microarray analysis.
Experiment [34] shares this target. Nature of the experiment: Inhibition of IPTG-stimulated Escherichia coli K-12 yadR at 4 fold MIC by microarray analysis.
The target in experiment [35] is tRNA threonylcarbamoyladenosine biosynthesis protein TsaE (Escherichia coli (strain K12)) (UniProt P0AF67). Nature of the experiment: Inhibition of IPTG-stimulated Escherichia coli K-12 yjeE at 4 fold MIC by microarray analysis.

Sequence of Acyl carrier protein (Escherichia coli (strain K12)) (P0A6A8 whole entry): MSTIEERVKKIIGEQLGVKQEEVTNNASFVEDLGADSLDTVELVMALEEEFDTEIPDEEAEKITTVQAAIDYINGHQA
Sequence of Octaprenyl diphosphate synthase (Escherichia coli (strain K12)) (P0AD57 whole entry): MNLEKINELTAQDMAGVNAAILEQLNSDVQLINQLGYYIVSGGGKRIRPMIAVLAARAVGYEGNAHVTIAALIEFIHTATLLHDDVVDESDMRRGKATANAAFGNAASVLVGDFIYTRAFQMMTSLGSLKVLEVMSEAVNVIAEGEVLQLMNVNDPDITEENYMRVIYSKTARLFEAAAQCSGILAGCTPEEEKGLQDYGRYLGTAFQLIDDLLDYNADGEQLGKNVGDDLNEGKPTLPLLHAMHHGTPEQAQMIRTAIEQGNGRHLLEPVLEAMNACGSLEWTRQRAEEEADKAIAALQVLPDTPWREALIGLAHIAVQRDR
Sequence of 3-oxoacyl-[acyl-carrier-protein] synthase 1 (Escherichia coli K-12) (P0A953 whole entry): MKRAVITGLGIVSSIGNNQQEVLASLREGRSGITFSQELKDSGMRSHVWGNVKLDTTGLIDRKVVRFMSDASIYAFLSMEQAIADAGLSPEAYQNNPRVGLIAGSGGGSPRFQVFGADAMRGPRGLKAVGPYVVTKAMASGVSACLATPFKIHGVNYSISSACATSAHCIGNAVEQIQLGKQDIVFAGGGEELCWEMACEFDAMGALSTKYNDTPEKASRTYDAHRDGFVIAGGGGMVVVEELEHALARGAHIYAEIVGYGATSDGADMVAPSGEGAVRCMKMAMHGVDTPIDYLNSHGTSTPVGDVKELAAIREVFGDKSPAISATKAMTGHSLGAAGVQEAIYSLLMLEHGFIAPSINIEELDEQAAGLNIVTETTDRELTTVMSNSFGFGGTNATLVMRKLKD
Sequence of 1-acyl-sn-glycerol-3-phosphate acyltransferase (Escherichia coli (strain K12)) (P26647 whole entry): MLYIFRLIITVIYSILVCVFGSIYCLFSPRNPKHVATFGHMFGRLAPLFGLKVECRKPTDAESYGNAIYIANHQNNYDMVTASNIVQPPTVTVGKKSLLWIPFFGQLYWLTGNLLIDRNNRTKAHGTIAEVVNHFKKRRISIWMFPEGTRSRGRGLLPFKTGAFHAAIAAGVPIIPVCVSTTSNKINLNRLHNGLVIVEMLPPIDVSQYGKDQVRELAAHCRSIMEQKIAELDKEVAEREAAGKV
Sequence of Guanylate kinase (Escherichia coli (strain K12)) (P60546 whole entry): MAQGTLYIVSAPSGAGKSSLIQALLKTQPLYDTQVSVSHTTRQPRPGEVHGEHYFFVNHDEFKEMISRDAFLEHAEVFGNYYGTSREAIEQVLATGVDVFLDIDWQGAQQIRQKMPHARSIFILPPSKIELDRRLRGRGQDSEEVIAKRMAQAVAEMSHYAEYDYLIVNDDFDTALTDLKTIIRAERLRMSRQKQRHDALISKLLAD
Sequence of Fructose-bisphosphate aldolase class 2 (Escherichia coli K-12) (P0AB71 whole entry): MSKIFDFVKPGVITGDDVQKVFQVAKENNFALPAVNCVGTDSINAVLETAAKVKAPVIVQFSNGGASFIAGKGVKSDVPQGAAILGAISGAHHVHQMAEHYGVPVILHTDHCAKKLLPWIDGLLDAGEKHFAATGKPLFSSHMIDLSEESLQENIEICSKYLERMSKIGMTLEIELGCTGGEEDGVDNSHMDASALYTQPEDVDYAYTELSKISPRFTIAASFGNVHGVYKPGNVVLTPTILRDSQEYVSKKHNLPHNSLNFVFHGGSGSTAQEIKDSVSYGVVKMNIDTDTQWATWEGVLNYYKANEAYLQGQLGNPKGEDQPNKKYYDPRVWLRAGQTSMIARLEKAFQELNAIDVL
Sequence of CDP-diacylglycerol--glycerol-3-phosphate 3-phosphatidyltransferase (Escherichia coli (strain K12)) (P0ABF8 whole entry): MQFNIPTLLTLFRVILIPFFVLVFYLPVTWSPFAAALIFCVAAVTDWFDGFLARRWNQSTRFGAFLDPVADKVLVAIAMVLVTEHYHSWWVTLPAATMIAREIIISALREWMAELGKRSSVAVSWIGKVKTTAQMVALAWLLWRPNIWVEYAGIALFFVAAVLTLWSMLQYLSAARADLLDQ
Sequence of UDP-N-acetylglucosamine 1-carboxyvinyltransferase (Escherichia coli K-12) (P0A749 whole entry): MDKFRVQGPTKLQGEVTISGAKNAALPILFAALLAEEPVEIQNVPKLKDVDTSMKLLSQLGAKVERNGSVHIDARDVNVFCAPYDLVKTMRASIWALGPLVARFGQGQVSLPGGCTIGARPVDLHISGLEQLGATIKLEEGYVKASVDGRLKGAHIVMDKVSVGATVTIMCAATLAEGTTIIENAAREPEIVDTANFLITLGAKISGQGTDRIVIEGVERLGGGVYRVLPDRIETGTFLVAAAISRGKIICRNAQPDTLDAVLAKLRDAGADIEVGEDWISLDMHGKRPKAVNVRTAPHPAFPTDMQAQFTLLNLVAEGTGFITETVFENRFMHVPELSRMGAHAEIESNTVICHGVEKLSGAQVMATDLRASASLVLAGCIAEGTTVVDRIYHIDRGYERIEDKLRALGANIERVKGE
Sequence of UDP-3-O-acyl-N-acetylglucosamine deacetylase (Escherichia coli K-12) (P0A725 whole entry): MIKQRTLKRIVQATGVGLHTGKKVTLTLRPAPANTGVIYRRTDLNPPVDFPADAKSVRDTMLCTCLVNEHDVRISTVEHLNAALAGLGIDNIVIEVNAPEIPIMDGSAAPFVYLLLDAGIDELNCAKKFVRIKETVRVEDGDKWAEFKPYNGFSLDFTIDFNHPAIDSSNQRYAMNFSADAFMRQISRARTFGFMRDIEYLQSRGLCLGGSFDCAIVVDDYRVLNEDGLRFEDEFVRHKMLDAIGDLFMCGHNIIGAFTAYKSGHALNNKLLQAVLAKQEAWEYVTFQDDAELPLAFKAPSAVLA
Sequence of Farnesyl diphosphate synthase (Escherichia coli K-12) (P22939 whole entry): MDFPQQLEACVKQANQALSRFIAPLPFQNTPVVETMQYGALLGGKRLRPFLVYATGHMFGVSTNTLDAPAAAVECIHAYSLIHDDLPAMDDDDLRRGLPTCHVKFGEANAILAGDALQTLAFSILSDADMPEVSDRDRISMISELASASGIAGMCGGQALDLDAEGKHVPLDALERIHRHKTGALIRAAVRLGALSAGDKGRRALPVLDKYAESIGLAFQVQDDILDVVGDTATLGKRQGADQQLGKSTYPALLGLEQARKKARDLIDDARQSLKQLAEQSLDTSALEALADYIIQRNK
Sequence of Uncharacterized protein YdfB (Escherichia coli (strain K12)) (P29009 whole entry): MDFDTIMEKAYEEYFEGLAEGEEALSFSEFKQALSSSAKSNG
Sequence of UDP-N-acetylmuramoyl-L-alanyl-D-glutamate--2,6-diaminopimelate ligase (Escherichia coli (strain K12)) (P22188 whole entry): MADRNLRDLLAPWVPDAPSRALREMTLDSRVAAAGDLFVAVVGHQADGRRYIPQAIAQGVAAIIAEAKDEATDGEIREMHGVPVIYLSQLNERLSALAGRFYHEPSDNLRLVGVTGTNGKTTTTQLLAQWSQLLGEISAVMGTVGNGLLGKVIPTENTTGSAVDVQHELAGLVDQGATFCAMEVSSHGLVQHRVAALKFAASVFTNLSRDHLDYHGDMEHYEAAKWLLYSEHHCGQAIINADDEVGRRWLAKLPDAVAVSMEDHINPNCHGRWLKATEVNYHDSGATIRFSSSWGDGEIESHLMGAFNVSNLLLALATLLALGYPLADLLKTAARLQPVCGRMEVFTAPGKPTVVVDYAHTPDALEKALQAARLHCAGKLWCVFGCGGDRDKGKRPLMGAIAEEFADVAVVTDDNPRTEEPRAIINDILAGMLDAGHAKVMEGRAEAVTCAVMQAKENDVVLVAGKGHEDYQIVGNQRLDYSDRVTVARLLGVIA
Sequence of Putative reactive intermediate deaminase TdcF (Escherichia coli (strain K12)) (P0AGL2 whole entry): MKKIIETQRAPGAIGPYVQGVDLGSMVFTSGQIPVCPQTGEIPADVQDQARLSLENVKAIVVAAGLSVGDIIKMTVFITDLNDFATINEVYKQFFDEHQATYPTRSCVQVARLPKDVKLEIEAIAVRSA
Sequence of Multifunctional CCA protein (Escherichia coli (strain K12)) (P06961 whole entry): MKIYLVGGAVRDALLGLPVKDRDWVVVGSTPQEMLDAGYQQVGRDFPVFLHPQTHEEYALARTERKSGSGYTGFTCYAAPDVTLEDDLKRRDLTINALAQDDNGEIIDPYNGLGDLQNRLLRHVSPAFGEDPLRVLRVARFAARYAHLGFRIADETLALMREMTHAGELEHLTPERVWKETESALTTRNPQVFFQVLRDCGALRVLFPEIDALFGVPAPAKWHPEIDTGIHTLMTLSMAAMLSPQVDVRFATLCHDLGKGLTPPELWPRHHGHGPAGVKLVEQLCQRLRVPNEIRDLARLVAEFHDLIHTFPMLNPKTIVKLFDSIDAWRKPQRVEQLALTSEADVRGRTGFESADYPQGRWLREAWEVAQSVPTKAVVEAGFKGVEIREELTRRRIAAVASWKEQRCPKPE

For `C[C@@H]1O[C@@H]1P(=O)(O)O`, the inhibition result in [1], in experiment [2], in [3], in experiment [4], in experiment [5] and in [6] was “Active” in each case. For the same molecule, the inhibition entry in experiment [7], in [8], in experiment [9], in [10], in [11] and in experiment [12] was “Active” each time. For the same molecule, the inhibition entry in experiment [13], in experiment [14], in experiment [15], in experiment [16], in experiment [17] and in [18] was “Active” throughout. The inhibition entry in [19], in [20] and in [21] was “Active” throughout.
As for `CCn1cc(C(=O)O)c(=O)c2cc(F)c(N3CCNCC3)cc21`, the result in experiment [22] was inactive.
Take `N[C@@H]1CONC1=O`: the inhibition entry in [23], in experiment [24], in [25], in [26], in experiment [27] and in experiment [28] was “Active” each time. The inhibition entry in experiment [29], in experiment [30], in experiment [31], in [32], in experiment [33] and in experiment [34] was “Active” in each case. Besides, the inhibition result in [35] is “Active”.

For the origin of these results see ChEMBL document CHEMBL1212733, “Chemical genomics in Escherichia coli identifies an inhibitor of bacterial lipoprotein targeting” (Nat Chem Biol, 2009).
